Results reported in US20210403443A1, “SUBSTITUTED 1,2,4-OXADIAZOLE, ITS APPLICATION AND A PHARMACEUTICAL PREPARATION COMPRISING IT” (SVENOX PHARMACEUTICALS LLC, priority 2018, published 2021).
Values after ≈ are worked out from the molar mass of the structure shown. Like-named read-outs stand apart in the source and are kept apart here.

What was measured:
[1] = tested on: M. kansasii CNCTC My 235/80; test: microbe, parasite or virus in culture; assay type: cell-based; conditions: Mycobacterium kansasii, read-out: Minimum inhibiting concentration
[2] = tested on: M. avium CNCTC My 330/88; test: MIC micromethod in Sula's medium, atypical strain M. avium; assay type: cell-based; conditions: Mycobacterium avium, read-out: Minimum inhibiting concentration
Description: The prepared compounds with general formula I were tested by the Institute of Public Health in Ostrava (Department of Bacteriology and Mycology, Laboratory for Diagnostics of Mycobacteria, Partyzanské náměsti 7, 702 00 Ostrava) under in vitro conditions in liquid Sula's medium and their minimum inhibiting concentrations (MIC) were determined as the biological effect of molecules cannot be predicted. The antimycobacterial activity of the prepared compounds was tested on the collection strain Mycobacterium tuberculosis CNCTC My 331/88, collection atypical strains M. avium CNCTC My 330/88 and M. kansasii CNCTC My 235/80. Their activity was compared with the effect of isoniazide (INH), a commonly used medicament.

[3] = tested on: Mycobacterium tuberculosis CNCTC My 331/88; test: microbe, parasite or virus in culture; assay type: cell-based; conditions: read-out: Minimum inhibiting concentration
[4] = 336 h, M. avium My 330/88, after 14 days of incubation
[5] = 504 h, M. avium My 330/88, after 21 days of incubation

Compound | MIC ([1]; 168 h) | MIC ([1]; 336 h) | MIC ([1]; 504 h) | MIC [2, 4] | MIC [2, 5] | melting point | MIC ([3]; 336 h) | MIC ([3]; 504 h)
O=[N+]([O-])c1cc(CSc2nc(-c3ccccc3)no2)cc([N+](=O)[O-])c1 [Compound 1, 5-((3,5-Dinitrobenzyl)sulfanyl)-3-phenyl-1,2,4-oxadiazole] | 0.5 µM (≈ 0.179 µg/mL) | 1 µM (≈ 0.358 µg/mL) | 1 µM (≈ 0.358 µg/mL) | 250 µM (≈ 89.6 µg/mL) | 250 µM (≈ 89.6 µg/mL) | 135 to 136 °C | 0.5 µM (≈ 0.179 µg/mL) | 1 µM (≈ 0.358 µg/mL)
Cc1ccc(-c2noc(SCc3cc([N+](=O)[O-])cc([N+](=O)[O-])c3)n2)cc1 [Compound 2, 5-((3,5-Dinitrobenzyl)sulfanyl)-3-(p-tolyl)-1,2,4-oxadiazole] | 0.5 µM (≈ 0.186 µg/mL) | 1 µM (≈ 0.372 µg/mL) | 2 µM (≈ 0.745 µg/mL) | 250 µM (≈ 93.1 µg/mL) | 250 µM (≈ 93.1 µg/mL) | 150 to 152 °C | 0.5 µM (≈ 0.186 µg/mL) | 1 µM (≈ 0.372 µg/mL)
COc1ccc(-c2noc(SCc3cc([N+](=O)[O-])cc([N+](=O)[O-])c3)n2)cc1 [Compound 3] | 0.5 µM (≈ 0.194 µg/mL) | 1 µM (≈ 0.388 µg/mL) | 2 µM (≈ 0.777 µg/mL) | 250 µM (≈ 97.1 µg/mL) | 250 µM (≈ 97.1 µg/mL) | – | 0.5 µM (≈ 0.194 µg/mL) | 0.5 µM (≈ 0.194 µg/mL)
O=[N+]([O-])c1cc(CSc2nc(-c3ccc(Cl)cc3)no2)cc([N+](=O)[O-])c1 [Compound 4] | 1 µM (≈ 0.393 µg/mL) | 2 µM (≈ 0.786 µg/mL) | 4 µM (≈ 1.57 µg/mL) | 250 µM (≈ 98.2 µg/mL) | 250 µM (≈ 98.2 µg/mL) | – | 0.5 µM (≈ 0.196 µg/mL) | 1 µM (≈ 0.393 µg/mL)
O=[N+]([O-])c1cc(CSc2nc(-c3cccc(Cl)c3)no2)cc([N+](=O)[O-])c1 [Compound 5] | 2 µM (≈ 0.786 µg/mL) | 2 µM (≈ 0.786 µg/mL) | 4 µM (≈ 1.57 µg/mL) | 250 µM (≈ 98.2 µg/mL) | 250 µM (≈ 98.2 µg/mL) | 133 to 135 °C | 0.5 µM (≈ 0.196 µg/mL) | 1 µM (≈ 0.393 µg/mL)
O=[N+]([O-])c1cc(CSc2nc(-c3ccccc3Cl)no2)cc([N+](=O)[O-])c1 [Compound 6] | 8 µM (≈ 3.14 µg/mL) | 16 µM (≈ 6.28 µg/mL) | 32 µM (≈ 12.6 µg/mL) | 125 µM (≈ 49.1 µg/mL) | 125 µM (≈ 49.1 µg/mL) | 158 to 160 °C | 0.5 µM (≈ 0.196 µg/mL) | 1 µM (≈ 0.393 µg/mL)
O=[N+]([O-])c1cc(CSc2nc(-c3ccc(Cl)c(Cl)c3)no2)cc([N+](=O)[O-])c1 [Compound 7] | 1 µM (≈ 0.427 µg/mL) | 1 µM (≈ 0.427 µg/mL) | 2 µM (≈ 0.854 µg/mL) | 250 µM (≈ 107 µg/mL) | 250 µM (≈ 107 µg/mL) | 176 to 177 °C | 1 µM (≈ 0.427 µg/mL) | 1 µM (≈ 0.427 µg/mL)
O=[N+]([O-])c1cc(CSc2nc(-c3ccc(F)cc3)no2)cc([N+](=O)[O-])c1 [Compound 8] | 0.5 µM (≈ 0.188 µg/mL) | 1 µM (≈ 0.376 µg/mL) | 2 µM (≈ 0.753 µg/mL) | 250 µM (≈ 94.1 µg/mL) | 250 µM (≈ 94.1 µg/mL) | 150 to 152 °C | 0.25 µM (≈ 0.0941 µg/mL) | 0.5 µM (≈ 0.188 µg/mL)
O=[N+]([O-])c1cc(CSc2nc(-c3ccc(Br)cc3)no2)cc([N+](=O)[O-])c1 [Compound 9] | 1 µM (≈ 0.437 µg/mL) | 1 µM (≈ 0.437 µg/mL) | 2 µM (≈ 0.874 µg/mL) | 125 µM (≈ 54.7 µg/mL) | 125 µM (≈ 54.7 µg/mL) | 175 to 176 °C | 1 µM (≈ 0.437 µg/mL) | 1 µM (≈ 0.437 µg/mL)
O=[N+]([O-])c1cc(CCc2nc(-c3ccccc3)no2)cc([N+](=O)[O-])c1 [Compound 11, 5-(3,5-Dinitrophenethyl)-3-phenyl-1,2,4-oxadiazole] | 2 µM (≈ 0.681 µg/mL) | 4 µM (≈ 1.36 µg/mL) | 8 µM (≈ 2.72 µg/mL) | 250 µM (≈ 85.1 µg/mL) | 250 µM (≈ 85.1 µg/mL) | 120 to 122 °C | 4 µM (≈ 1.36 µg/mL) | 4 µM (≈ 1.36 µg/mL)
Cc1ccc(-c2noc(CCc3cc([N+](=O)[O-])cc([N+](=O)[O-])c3)n2)cc1 [Compound 12, 5-(3,5-Dinitrophenethyl)-3-(p-tolyl)-1,2,4-oxadiazole] | 2 µM (≈ 0.709 µg/mL) | 4 µM (≈ 1.42 µg/mL) | 4 µM (≈ 1.42 µg/mL) | 250 µM (≈ 88.6 µg/mL) | 250 µM (≈ 88.6 µg/mL) | 147 to 148 °C | 2 µM (≈ 0.709 µg/mL) | 4 µM (≈ 1.42 µg/mL)
COc1ccc(-c2noc(CCc3cc([N+](=O)[O-])cc([N+](=O)[O-])c3)n2)cc1 [Compound 13] | 0.5 µM (≈ 0.185 µg/mL) | 1 µM (≈ 0.37 µg/mL) | 2 µM (≈ 0.741 µg/mL) | 250 µM (≈ 92.6 µg/mL) | 250 µM (≈ 92.6 µg/mL) | 128 to 129 °C | 0.5 µM (≈ 0.185 µg/mL) | 1 µM (≈ 0.37 µg/mL)
O=[N+]([O-])c1cc(CCc2nc(-c3ccc(Cl)cc3)no2)cc([N+](=O)[O-])c1 [Compound 14] | > 32 µM | > 32 µM | > 32 µM | 250 µM (≈ 93.7 µg/mL) | 250 µM (≈ 93.7 µg/mL) | 182 to 183 °C | > 32 µM | > 32 µM
O=[N+]([O-])c1cc(CCc2nc(-c3ccc(Cl)c(Cl)c3)no2)cc([N+](=O)[O-])c1 [Compound 15] | 32 µM (≈ 13.1 µg/mL) | > 32 µM | > 32 µM | 250 µM (≈ 102 µg/mL) | 250 µM (≈ 102 µg/mL) | 154 to 155 °C | > 32 µM | > 32 µM
O=[N+]([O-])c1cc(CCc2nc(-c3ccc(F)cc3)no2)cc([N+](=O)[O-])c1 [Compound 16] | > 32 µM | > 32 µM | > 32 µM | 250 µM (≈ 89.6 µg/mL) | 250 µM (≈ 89.6 µg/mL) | 169 to 171 °C | > 32 µM | > 32 µM
